Consider 37 molecules from patent publication US9284283B2, “Macrocyclic compounds for modulating IL-17” (ENSEMBLE THERAPEUTICS CORPORATION, priority 2012, dated 2016).

This experiment deals with T1, IL17A (Homo sapiens, UniProt Q16552).
T1 sequence (Q16552 24-155): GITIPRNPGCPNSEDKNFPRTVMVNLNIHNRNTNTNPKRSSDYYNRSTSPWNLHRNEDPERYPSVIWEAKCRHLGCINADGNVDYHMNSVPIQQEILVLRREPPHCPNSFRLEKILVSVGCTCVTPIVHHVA
Description: Surface Plasmon Resonance (SPR) analysis of compound interactions with IL17A. The settings on record: SPR binding to IL17A. The method, then: SPR analysis was carried out with a GE Healthcare (Piscataway, N.J.) Biacore X100 system. Typically, the chip (NTA Biacore Biosensor chip; GE Healthcare BR-1000-34) was first conditioned by injection of 0.35 M EDTA, which also served to remove any immobilized proteins from previous runs. Before immobilization of the recombinant 6-His-tagged IL17, the chip was washed with 0.5 mM nickel chloride in NTA buffer (10 mM HEPES buffer, 0.15 M sodium chloride, 10 μM ethylene diamine tetraacetic acid, 0.005% v/v surfactant P20 (GE Healthcare BR-1000-54)) to form a nickel chelate on the chip. IL17 protein was immobilized onto a NTA chip through its 6-His tag. IL17A was typically injected at 0.25 μM for 60-120 seconds, followed by a stabilization step washing with NTA+0.5% DMSO for 120 seconds or longer.
Five 2-fold or 3-fold serial dilutions of test compound were injected serially onto the chip. All steps were conducted using NTA buffer containing 0.5% v/v dimethylsulfoxide (DMSO). Compounds were diluted from stock solutions of 10 mM concentration in 100% DMSO with NTA buffer to obtain 50 μM solutions in NTA+0.5% DMSO. Subsequent 2× or 3× dilutions were made in NTA+0.5% DMSO. Compound was generally injected for 180 seconds followed by washing the chip in buffer alone for 120 seconds. The rate of refractive index change (RU units/time) and the maximum extend of RU change was measured during the “on” phase of analyte injection, followed by measuring the rate during the “off” phase.
Kinetic parameter fits were conducted using the Biacore SPR Evaluation Program (GE Healthcare) for 1:1 molecular binding fits, after subtracting the baseline average of 2 or more runs in which no analyte was injected. This program then reports the best fit average for the “on” rate (Ka), the “off” rate (Kd) and the dissociation constant (KD) (Chaiken, I et al., Anal Biochem 201, 197-210 (1992)). A separate program in the Biacore SPR Evaluation Program then calculates the best fit for Kd based upon the extent of binding alone (RU units bound) at each concentration of analyte and reports the best fit Kd by best fit to a Lineweaver-Burke plot. Typically, the Kd value calculated through both means agreed within a factor of three.
The presence and activity of IL17 on the NTA chip was routinely confirmed three ways: • 1) An increase in response units (RU) upon immobilization confirms that the IL17 was immobilized on the chip; • 2) Anti-IL17 was also injected on the chip to confirm the presence of IL17; and • 3) IL17R was injected onto the chip to confirm that the immobilized IL17 retained its binding activity for its receptor. Negative controls to access specificity for compound binding were conducted by immobilizing unrelated, but his-tagged, proteins (such as cyclophilin D) and conducting the same analysis as done with IL17A.
For orientation: SPR reads the build-up and loss of mass on a sensor chip optically.
For the molecule `COC(=O)[C@@H]1CCCCNC(=O)CCCNC(=O)[C@@H](Cc2ccc(NC(=O)[C@H](Cc3ccccc3F)NC(=O)c3ccccc3)cc2)NC(=O)CC2(CCCC2)CC(=O)N1` [Compound 128], the Kd – broadly, the constant that tells how readily two partners part at equilibrium – is 100 to 1000 nM.
`COC(=O)[C@@H]1Cc2ccc(cc2)NC(=O)CCCNC(=O)[C@@H](Cc2ccc(NC(=O)[C@H](Cc3ccccc3F)NC(=O)c3ccccc3)cc2)NC(=O)CC2(CCCC2)CC(=O)N1` [Compound 134] came in with a Kd of 100 to 1000 nM.
`COC(=O)[C@@H]1Cc2ccc(cc2)NC(=O)CCCNC(=O)[C@@H](Cc2ccc(NC(=O)[C@H](Cc3ccccc3F)NC(=O)Cc3ccccc3)cc2)NC(=O)CC2(CCCC2)CC(=O)N1` [Compound 135] came in with a Kd of 100 to 1000 nM.
In the case of `COC(=O)[C@H]1CCCCNC(=O)CCCNC(=O)[C@@H](Cc2ccc(NC(=O)[C@H](Cc3ccccc3F)NC(=O)c3ccccc3)cc2)NC(=O)CC2(CCCC2)CC(=O)N1` [Compound 136] it was under 100 nM.
`COC(=O)[C@@H]1CCCCNC(=O)CCCNC(=O)[C@H](Cc2ccc(NC(=O)[C@H](Cc3ccccc3F)NC(=O)c3ccccc3)cc2)NC(=O)CC2(CCCC2)CC(=O)N1` [Compound 137] returned a dissociation constant (Kd) of 100 to 1000 nM.
In turn, `COC(=O)[C@H]1CCCCNC(=O)CCCNC(=O)[C@@H](Cc2ccc(NC(=O)[C@H](Cc3ccccc3)NC(=O)Cc3ccccc3)cc2)NC(=O)CC2(CCCC2)CC(=O)N1` [Compound 138] registered a Kd of 100 to 1000 nM.
`COC(=O)[C@H]1CCCCNC(=O)CCCNC(=O)[C@@H](Cc2ccc(NC(=O)[C@H](Cc3ccccc3)NC(=O)c3ccccc3)cc2)NC(=O)CC2(CCCC2)CC(=O)N1` [Compound 139] registered a Kd of 100 to 1000 nM.
The molecule `COC(=O)[C@@H]1CCCCNC(=O)CCCNC(=O)[C@@H](Cc2ccc(NC(=O)[C@H](Cc3ccccc3)NC(=O)Cc3ccc(C(F)(F)F)cc3)cc2)NC(=O)CC2(CCCC2)CC(=O)N1` [Compound 140] came in with a dissociation constant (Kd) of 100 to 1000 nM.
`COC(=O)[C@H]1CCCCNC(=O)C(C)(C)NC(=O)[C@@H](Cc2ccc(NC(=O)[C@H](Cc3ccccc3Cl)NC(=O)Cc3ccccc3)cc2)NC(=O)CC2(CCCC2)CC(=O)N1` [Compound 145]: the Kd is under 100 nM.
The result for `COC(=O)[C@H]1CCCCNC(=O)C(C)(C)NC(=O)[C@@H](Cc2ccc(NC(=O)[C@H](Cc3ccccc3Cl)NC(=O)c3ccccc3)cc2)NC(=O)CC2(CCCC2)CC(=O)N1` [Compound 146] reads under 100 nM; that for `COC(=O)[C@H]1CCCCNC(=O)[C@H](CO)NC(=O)[C@@H](Cc2ccc(NC(=O)[C@H](Cc3ccccc3Cl)NC(=O)Cc3ccccc3)cc2)NC(=O)CC2(CCCC2)CC(=O)N1` [Compound 147], 100 to 1000 nM; that for `COC(=O)[C@H]1CCCCNC(=O)[C@H](CO)NC(=O)[C@@H](Cc2ccc(NC(=O)[C@H](Cc3ccccc3Cl)NC(=O)c3ccccc3)cc2)NC(=O)CC2(CCCC2)CC(=O)N1` [Compound 148], 100 to 1000 nM.
The molecule `COC(=O)[C@H]1CCCCNC(=O)CNC(=O)[C@@H](Cc2ccc(NC(=O)[C@H](Cc3ccccc3F)NC(=O)Cc3ccccc3)cc2)NC(=O)CC2(CCCC2)CC(=O)N1` [Compound 149] had a Kd of under 100 nM.
For the molecule `COC(=O)[C@H]1CCCCNC(=O)CNC(=O)[C@@H](Cc2ccc(NC(=O)[C@H](Cc3ccccc3F)NC(=O)c3ccccc3)cc2)NC(=O)CC2(CCCC2)CC(=O)N1` [Compound 150], the dissociation constant Kd was under 100 nM.
With `COC(=O)[C@@H]1CCCCNC(=O)CNC(=O)[C@@H](Cc2ccc(NC(=O)[C@H](Cc3ccccc3F)NC(=O)c3ccccc3)cc2)NC(=O)CC2(CCCC2)CC(=O)N1` [Compound 151], the Kd is under 100 nM.
As for `CC(=O)N[C@@H](Cc1ccccc1Cl)C(=O)Nc1ccc(C[C@H]2NC(=O)CC3(CCCC3)CC(=O)NCCCNC(=O)CNC2=O)cc1` [Compound 152], the Kd fell in the range of 100 to 1000 nM.
Regarding `CC(=O)N[C@@H](Cc1ccccc1Cl)C(=O)Nc1ccc(C[C@H]2NC(=O)CC3(CCCC3)CC(=O)NCCCCCNC(=O)CCNC2=O)cc1` [Compound 154], the Kd was under 100 nM.
Take `CC(=O)N[C@@H](Cc1ccccc1Cl)C(=O)Nc1ccc(C[C@H]2NC(=O)CC3(CCCC3)CC(=O)NCCCCCNC(=O)CCCNC2=O)cc1` [Compound 155]: the Kd was under 100 nM.
Turning to `O=C1CNC(=O)[C@@H](Cc2ccc(NC(=O)[C@H](Cc3ccccc3Cl)NC(=O)Cc3ccccc3)cc2)NC(=O)CC2(CCCC2)CC(=O)NCCCN1` [Compound 156], the Kd is under 100 nM.
In turn, `O=C1CCNC(=O)[C@@H](Cc2ccc(NC(=O)[C@H](Cc3ccccc3Cl)NC(=O)Cc3ccccc3)cc2)NC(=O)CC2(CCCC2)CC(=O)NCCCN1` [Compound 157] had a Kd of under 100 nM.
In turn, `O=C1CCNC(=O)[C@@H](Cc2ccc(NC(=O)[C@H](Cc3ccccc3Cl)NC(=O)Cc3ccccc3)cc2)NC(=O)CC2(CCCC2)CC(=O)NCCCCCN1` [Compound 160] yielded a dissociation constant Kd of under 100 nM.
In the case of `O=C1CCCNC(=O)[C@@H](Cc2ccc(NC(=O)[C@H](Cc3ccccc3Cl)NC(=O)Cc3ccccc3)cc2)NC(=O)CC2(CCCC2)CC(=O)NCCCCCN1` [Compound 161] it was under 100 nM.
`O=C1CNC(=O)[C@@H](Cc2ccc(NC(=O)[C@H](Cc3ccccc3Cl)NC(=O)Cc3ccccc3)cc2)NC(=O)CC2(CCCC2)CC(=O)NCCCCN1` [Compound 162] returned a Kd of under 100 nM.
`CC(=O)N[C@@H](Cc1ccccc1Cl)C(=O)Nc1ccc(C[C@H]2NC(=O)CC3(CCCC3)CC(=O)NCCCCNC(=O)CNC2=O)cc1` [Compound 163] had a Kd of under 100 nM.
Regarding `CC(=O)N[C@@H](Cc1ccccc1Cl)C(=O)Nc1ccc(C[C@H]2NC(=O)CC3(CCCC3)CC(=O)NCCCCNC(=O)CCNC2=O)cc1` [Compound 165], the equilibrium dissociation constant (Kd) is under 100 nM.
In turn, `O=C1CCCNC(=O)[C@@H](Cc2ccc(NC(=O)[C@H](Cc3ccccc3Cl)NC(=O)Cc3ccccc3)cc2)NC(=O)CC2(CCCC2)CC(=O)NCCCCN1` [Compound 166] returned a Kd of under 100 nM.
In turn, `CC(=O)N[C@@H](Cc1ccccc1Cl)C(=O)Nc1ccc(C[C@H]2NC(=O)CC3(CCCC3)CC(=O)NCCCCNC(=O)CCCNC2=O)cc1` [Compound 167] gave a Kd of under 100 nM.
The molecule `O=C1CCNC(=O)[C@@H](Cc2ccc(NC(=O)[C@H](Cc3ccccc3Cl)NC(=O)Cc3ccccc3)cc2)NC(=O)CC2(CCCC2)CC(=O)N(CCO)CCCCCN1` [Compound 170] yielded a Kd of under 100 nM.
As to `CC(=O)N[C@@H](Cc1ccccc1Cl)C(=O)Nc1ccc(C[C@H]2NC(=O)CC3(CCCC3)CC(=O)N(CCO)CCCCCNC(=O)CCNC2=O)cc1` [Compound 171], the Kd is under 100 nM.
For `O=C1CCCNC(=O)[C@@H](Cc2ccc(NC(=O)[C@H](Cc3ccccc3Cl)NC(=O)Cc3ccccc3)cc2)NC(=O)CC2(CCCC2)CC(=O)N(CCO)CCCCCN1` [Compound 172], the equilibrium dissociation constant (Kd) is under 100 nM.
Molecule `CC(=O)N[C@@H](Cc1ccccc1Cl)C(=O)Nc1ccc(C[C@H]2NC(=O)CC3(CCCC3)CC(=O)N(CCO)CCCCCNC(=O)CCCNC2=O)cc1` [Compound 173] gave a Kd of under 100 nM.
Molecule `O=C1CCCNC(=O)[C@H](Cc2ccc(NC(=O)[C@H](Cc3ccccc3F)NC(=O)Cc3ccccc3)cc2)NC(=O)CC2(CCCC2)CC(=O)N[C@H](C(=O)O)CCCCN1` [Compound 174] showed a dissociation constant Kd of 100 to 1000 nM.
The result for `O=C1CCCNC(=O)[C@@H](Cc2ccc(NC(=O)[C@H](Cc3ccccc3F)NC(=O)Cc3ccccc3)cc2)NC(=O)CC2(CCCC2)CC(=O)N[C@H](C(=O)O)CCCCN1` [Compound 175] reads 100 to 1000 nM; that for `O=C1CCCNC(=O)[C@@H](Cc2ccc(NC(=O)[C@H](Cc3ccccc3F)NC(=O)Cc3ccccc3)cc2)NC(=O)CC2(CCCC2)CC(=O)N[C@@H](C(=O)O)CCCCN1` [Compound 176], 100 to 1000 nM; that for `O=C1CCCNC(=O)[C@@H](Cc2ccc(NC(=O)[C@H](Cc3ccc(-c4ccccc4)cc3)NC(=O)c3ccccc3)cc2)NC(=O)CC2(CCCC2)CC(=O)N[C@H](C(=O)O)CCCCN1` [Compound 178], 100 to 1000 nM.
The result for `CC1(C)NC(=O)[C@@H](Cc2ccc(NC(=O)[C@H](Cc3ccccc3Cl)NC(=O)Cc3ccccc3)cc2)NC(=O)CC2(CCCC2)CC(=O)N[C@@H](C(=O)O)CCCCNC1=O` [Compound 182] reads 100 to 1000 nM; that for `O=C1CNC(=O)[C@@H](Cc2ccc(NC(=O)[C@H](Cc3ccc(O)cc3)NC(=O)Cc3ccc(O)cc3)cc2)NC(=O)CC2(CCCC2)CC(=O)NCCCCCN1` [Compound 189], under 100 nM.
